{"source": "patent US20190336504A1", "about": "“TREATMENT AND PREVENTION OF CYTOKINE RELEASE SYNDROME USING A CHIMERIC ANTIGEN RECEPTOR IN COMBINATION WITH A KINASE INHIBITOR” (Novartis AG, priority 2016, published 2019)", "key": {"primary MCL cells [1]": {"system": "primary MCL cells", "type": "in vivo, NOD-SCID gamma-chain deficient mice (NSG)", "protocol": "This example describes the development of such a model generated by intravenously injecting NOD-SCID gamma-chain deficient mice (NSG) with primary MCL cells collected from a patient with relapsed MCL (FIG. 3A). NOD SCID Gamma-chain deficient mice were injected with 2×10^6 primary MCL cells intravenously. […] Mice were then followed up for clinical signs, T cell engraftment, tumor burden and survival.\nNOD SCID Gamma-chain deficient mice were injected with 2×10^6 primary MCL cells intravenously. […] Mice were then followed up for clinical signs, T cell engraftment, tumor burden and survival. […] See, e.g., Ruella et al. Clin Cancer Res 2016; 10.1158/1078-0432.CCR-15-1527."}, "primary MCL cells [2]": {"system": "primary MCL cells", "experiment": "Cytokine production of primary MCL cells incubated for 24 hours with ibrutinib", "type": "cell-based", "details": "FIG. 4F", "protocol": "(§1) All graphs in FIGS. 4B-4F are representative of two independent experiments (5 mice per group). Student's t-test was used to compare two groups; in analysis where multiple groups were compared, one-way analysis of variance (ANOVA) was performed with Holm-Sidak correction for multiple comparisons. Survival curves were compared using the log-rank test. Asterisks represent p-values (*=<0.05, **=<0.01, ***=<0.001, ****=<0.0001) and “ns” means “not significant” (p>0.05)."}, "B cell neoplasms": {"system": "B cell neoplasms", "type": "in vivo, mice", "excerpt": "For FIGS. 3C-3E, all graphs were representative of two independent experiments (5 mice per group). Student's t-test was used to compare two groups. Survival curves were compared using the log-rank test. Asterisks represent p-values (*=<0.05, **=<0.01, ***=<0.001, ****=<0.0001) and “ns” means “not significant” (p>0.05).\nas §1"}, "primary AML blasts": {"system": "primary AML blasts", "type": "in vivo", "protocol": "For the development of CRS preclinical models, NOD-SCID-γ chain−/− (NSG) transgenic for human interleukin-3, stem cell factor and granulocyte macrophage colony-stimulating factor (NSG-S) were used. These were purchased from the Stem Cell and Xenograft Core of the University of Pennsylvania (originally obtained from Jackson Laboratories). Schemas of the utilized xenograft models are discussed in detail in the relevant figures and the Results section herein. Cells were injected in 200 ul of phosphate-buffered saline at the indicated concentration into the tail veins.\nRuxolitinib was purchased from Selleckchem, dissolved in DMSO and diluted to the indicated concentrations. […] Blood. […] Blood. […] Blood. 2016.\nSee, e.g., Gill S, Tasian S K, Ruella M, et al. Preclinical targeting of human acute myeloid leukemia and myeloablation using chimeric antigen receptor-modified T cells. Blood. 2014; 123:2343-2354. In particular, NSG-S mice were engrafted with primary AML blasts (5×10^6) and bled after 2-4 weeks to confirm engraftment. Mice then were treated with high doses of CART123 1×10^6 by intravenous tail vein single injection and monitored with serial clinical examinations, weight recording and retro-orbital bleedings for leukemia burden assessment and cytokine analysis. […] (CART123 were injected on day 41 post AML injection in the experiment.)\nThe experiments in this Example investigated ruxolitinib as a modality to prevent or reduce CRS severity after CART123 in the AML xenograft model described herein. NSGS mice were engrafted with primary AML blasts (5×10^6) and bled after 2-4 weeks to confirm peripheral blood engraftment. NSGS mice bearing primary AML were treated with CART123 (1×10^6) by intravenous tail vein single injection along with ruxolitinib or vehicle control. The mice were randomized to receive different doses of ruxolitinib (30 mg/kg, 60 mg/kg or 90 mg/kg) or vehicle by oral gavage twice a day. Treatment started on the day of CART123 injection and continued for a week (FIG. 2A). Mice were then monitored with serial clinical examinations, weight recording, retro-orbital bleedings for leukemia burden assessment and cytokine analysis and followed for survival."}, "AML": {"system": "AML", "details": "summary statement"}}, "note": "Where two headings read alike, the source gives them in different places."}
{"smiles": "C=CC(=O)N1CCC[C@@H](n2nc(-c3ccc(Oc4ccccc4)cc3)c3c(N)ncnc32)C1", "note": "[ibrutinib, 1-[(3R)-3-[4-Amino-3-(4-phenoxyphenyl)-1H-pyrazolo[3,4-d]pyrimidin-1-yl]piperidin-1-yl]prop-2-en-1-one]", "values": [{"measurement": "overall survival (OS)", "setting": "primary MCL cells [1]; CART19 + ibrutinib 125 mg/Kg/day in drinking water vs CART19 alone", "result": "prolonged overall survival"}, {"measurement": "CART19 expansion in the PB", "setting": "primary MCL cells [1]; CART19 + ibrutinib vs CART19 alone", "result": "augmented"}, {"measurement": "cytokines in the peripheral blood (IL-6, IFNg, TNFα, IL-2, GM-CSF)", "setting": "primary MCL cells [1]; day 4, ibrutinib-treated mice", "result": "significantly reduced"}, {"measurement": "cytokine production", "setting": "primary MCL cells [2]", "result": "significant cytokine production in a dose-dependent manner"}, {"measurement": "T cell expansion", "setting": "B cell neoplasms; CART19-treated mice, ibrutinib or vehicle treatment, FIG. 4D", "result": "augmented"}, {"measurement": "CRS after a CD19 CAR therapy", "setting": "B cell neoplasms; CD19 CAR therapy for B cell neoplasms, summary statement", "result": "improve or prevent CRS"}, {"measurement": "serum cytokines involved in CRS (Luminex)", "setting": "B cell neoplasms; mice treated with CART19+ibrutinib vs CART19, FIG. 4E", "result": "significant reduction"}, {"measurement": "overall survival", "setting": "B cell neoplasms; mice treated with CART19 plus ibrutinib (vs CART19 plus vehicle), FIG. 4B, log-rank test", "result": "significantly increased"}]}
{"smiles": "N#CC[C@H](C1CCCC1)n1cc(-c2ncnc3[nH]ccc23)cn1", "note": "[ruxolitinib, (3R)-3-cyclopentyl-3-[4-(7H-pyrrolo[2,3-d]pyrimidin-4-yl)pyrazol-1-yl]propanenitrile]", "values": [{"measurement": "leukemia in peripheral blood of surviving mice", "setting": "primary AML blasts; 70 days post AML injection, live human CD45 positive cells", "result": "all surviving mice had eradication of leukemia"}, {"measurement": "anti-leukemic effect", "setting": "primary AML blasts; all groups: CART123 + ruxolitinib 30, 60 or 90 mg/kg or vehicle", "result": "equivalent anti-leukemic effect"}, {"measurement": "T cell expansion in the peripheral blood", "setting": "primary AML blasts; ruxolitinib 60 mg/kg + CART123", "result": "blunted T cell expansion"}, {"measurement": "leukemia burden", "setting": "primary AML blasts; ruxolitinib 60 mg/kg + CART123", "result": "leukemia eradication"}, {"measurement": "levels of inflammatory cytokines", "setting": "primary AML blasts; ruxolitinib 60 mg/kg + CART123", "result": "reduced levels of inflammatory cytokines"}, {"measurement": "weight loss", "setting": "primary AML blasts; ruxolitinib 60 mg/kg + CART123", "result": "transient weight loss"}, {"measurement": "survival", "setting": "primary AML blasts; ruxolitinib 60 mg/kg + high dose CART123", "result": "long-term disease free survival"}, {"measurement": "clinical illness (CRS) manifested by weight loss", "setting": "primary AML blasts; ruxolitinib 60 mg/kg oral gavage twice a day for a week + CART123, vs CART123 alone or + 30 mg/kg", "result": "less severe clinical illness"}, {"measurement": "clinical illness (CRS) manifested by weight loss", "setting": "primary AML blasts; ruxolitinib 90 mg/kg oral gavage twice a day for a week + CART123, vs CART123 alone or + 30 mg/kg", "result": "less severe clinical illness"}, {"measurement": "direct anti-tumor activity", "setting": "primary AML blasts; ruxolitinib with CART123", "result": "no direct anti-tumor activity"}, {"measurement": "effect on anti-tumor activity of CART123", "setting": "primary AML blasts; ruxolitinib with CART123", "result": "did not impair"}, {"measurement": "cytokine release syndrome (CRS) after CART cell therapy", "setting": "AML; CART cell therapy for hematological cancers, such as AML", "result": "ameliorate cytokine release syndrome (CRS) severity or prevent CRS"}, {"measurement": "anti-tumor effect of the CART therapy", "setting": "AML; combination with JAK-STAT kinase inhibitor", "result": "without significantly impairing"}]}
